[1] = in 2,2,4-trimethylpentane, 298.2 K
[2] = in 2,2,4-trimethylpentane, 308.2 K
[3] = in 2,2,4-trimethylpentane, 318.2 K

| solubility (mole fraction) [1] | solubility (mole fraction) [2] | solubility (mole fraction) [3] | solubility (mole fraction) (in ethanol, 298.2 K) | solubility (mole fraction) (in ethanol, 308.2 K) | solubility (mole fraction) (in ethanol, 318.2 K) | Structure (SMILES) |
| --- | --- | --- | --- | --- | --- | --- |
| 0.0246 | 0.0378 | 0.0484 | 0.0119 | 0.0159 | 0.019 | c1ccc2c(c1)ccc1ccccc12 |
| 0.00119 | 0.00152 | 0.00177 | 0.000505 | 0.000665 | 0.00078 | c1ccc2cc3ccccc3cc2c1 |
